The experiment deals with ex-vivo cultured patient malignant plasma cells (PRMM patient Z01). The experiment is described as follows: FACS apoptosis assay (DAPI and Annexin-V) on ex vivo cultured patient cells. The experiment is classed as cell-based, human. To be noted: resistant PRMM patient Z01, DAPI and Annexin-V FACS. How it is done: Finally, it was evaluated whether this synergistic effect is also relevant to PI resistant MM patients. For this end, the present inventors collected BM sample from a highly resistant PRMM patient (Z01, Methods) and sorted the cells for MARS-seq analysis, confirming the patient is also positive for the resistance signature 1 (FIGS. 9E-G). […] The present inventors evaluated the patient ex vivo response to these treatments by FACS analysis of apoptotic cells using DAPI and Annexin-V staining.

Among the data in patent US20230272484A1, “METHODS OF PROGNOSING, DETERMINING TREATMENT COURSE AND TREATING MULTIPLE MYELOMA” (Yeda Research and Development Co. Ltd., priority 2020, published 2023) are live cells values, retold here.

Regarding `CC(C)C[C@H](NC(=O)[C@H](CCc1ccccc1)NC(=O)CN1CCOCC1)C(=O)N[C@@H](Cc1ccccc1)C(=O)N[C@@H](CC(C)C)C(=O)[C@@]1(C)CO1` [Carfilzomib], the live cells was determined as 23.4%.
